Reference: patent publication US5519029A, “2-aminoalkyl-5-aminoalkylamino substituted-isoquinoindazole-6(2H)-ones” (Boehringer Mannheim Italia, S.p.A., priority 1993, dated 1996)
≈ marks a conversion by molar mass, not a printed value. Entries after “also recorded” stand apart in the source; their conditions may differ. Like-named read-outs stand apart in the source and are kept apart here.

Legend:
[1] = test system: human colon adenocarcinoma cell line (Lovo); test: MTT cytotoxicity assay, Lovo cell line; type: cell-based; details: read-out: IC50 LOVO
Experimental: (§1) The evaluation of the biological activity for the compounds of this invention was performed in vitro and in vivo following the protocols developed by the U.S. National Cancer Institute.
(§2) The evaluation of the in vitro cytotoxic activity of the compounds of the invention was performed using a human colon adenocarcinoma cell line (Lovo) isolated from a metastatic nodule, and a subline expressing multidrug resistance. The subline is resistant to a number of antitumor agents, among which are doxorubicin, VP-16, and vincristine.

Lovo/DX [2] = test: MTT cytotoxicity assay, multidrug-resistant subline Lovo/DX; type: cell-based, human; details: for IC50: Homo sapiens, read-out: IC50 LOVO/DX; for RI (resistance index): ratio of the IC50 for the resistant line cell to the IC50 for the sensitive cell line; for cross resistance / resistance in Lovo/DX (in words): Lovo/DX subline
Experimental: as §1, §2

Lovo/DX [3] = details: characterisation of subline (Grandi et al. 1986); cited from earlier work
[4] = test system: advanced breast cancer, acute leukemia and lymphoma; details: clinical trials; cited from earlier work
[5] = cited from earlier work; for cardiotoxicity in animals (in words): animal studies
[6] = mostly in patients previously treated with doxorubicin; cited from earlier work
[7] = i.p., non-tumor bearing rats, equieffective antitumor dosages; cited from earlier work
[8] = in vivo; cited from earlier work
[9] = dose limiting, phase I and phase II; cited from earlier work
[10] = rat; cited from earlier work
[11] = test system: cell histotypes developing resistance against doxorubicin mediated by overexpression of glycoprotein P; details: doxorubicin-resistant cells; cited from earlier work
[12] = Lovo (sensitive) cells, MTT assay
[13] = Lovo/DX (resistant) cells, MTT assay

SMILES: CN(C)CCn1nc2c3c(c(NCCN)ccc31)C(=O)c1ccncc1-2
- IC50 [1, 12]: 0.5 µg/mL (≈ 1.43 µM)
- IC50 (Lovo/DX [2]; [13]): 22.4 µg/mL (≈ 63.9 µM)
- RI (resistance index) (Lovo/DX [2]): 44.8

SMILES: COc1cccc2c1C(=O)c1c(O)c3c(c(O)c1C2=O)C[C@@](O)(C(=O)CO)C[C@@H]3O[C@H]1C[C@H](N)[C@H](O)[C@H](C)O1 [DOXORUBICIN]
- IC50 ([1]; LoVo): 0.9 µg/mL (≈ 1.66 µM)
- IC50 (Lovo/DX [2]; [13]): 66.6 µg/mL (≈ 123 µM)
- RI (resistance index) (Lovo/DX [2]): 74
- resistance / accumulation in Lovo/DX subline (in words) (Lovo/DX [3]): resistant; also recorded: reduced accumulation

SMILES: O=C1c2c(O)ccc(O)c2C(=O)c2c(NCCNCCO)ccc(NCCNCCO)c21 [MITOXANTRONE, 5,8-dihydroxy-1,4-bis{[2-(2-hydroxyethylamino)ethyl]amino}anthracene-9,10-dione]
- IC50 ([1]; LoVo): 0.04 µg/mL (≈ 0.09 µM)
- IC50 (Lovo/DX [2]; LoVo/DX): 0.9 µg/mL (≈ 2.02 µM)
- cross resistance / resistance in Lovo/DX (in words) (Lovo/DX [2]): acquired resistance
- clinical antitumor activity (in words) [4]: particularly promising activity in the treatment of advanced breast cancer, acute leukemia and lymphoma
- cardiotoxicity in animals (in words) [5]: diminished cardiotoxicity in comparison to doxorubicin
- clinical cardiotoxicity (in words) [6]: some clinical cardiotoxicity has been observed
- delayed toxicity (in words) [7]: delayed toxicity is observed only with mitoxantrone
- myelodepressive toxicity (in words) [8]: remarkable myelodepressive toxicity

SMILES: O=C1c2c(O)cccc2-c2nn(CCNCCO)c3ccc(NCCNCCO)c1c23 [CI-941]
- neutropenia, W.H.O. grade [9]: 4 W.H.O. grade
- nephrotoxicity (in words) [10]: marked nephrotoxicity

SMILES: CC[C@]1(O)C[C@H]2CN(CCc3c([nH]c4ccccc34)[C@@](C(=O)OC)(c3cc4c(cc3OC)N(C=O)[C@H]3[C@@](O)(C(=O)OC)[C@H](OC(C)=O)[C@]5(CC)C=CCN6CC[C@]43[C@@H]65)C2)C1 [vincristine]
- resistance / accumulation in Lovo/DX subline (in words) (Lovo/DX [3]): resistant

SMILES: CN(C)CCNc1ccc2c3c(nn2CCN)-c2cnccc2C(=O)c13
- IC50 [1, 12]: 0.3 µg/mL (≈ 0.856 µM)
- IC50 (Lovo/DX [2]; [13]): 5 µg/mL (≈ 14.3 µM)
- RI (resistance index) (Lovo/DX [2]): 16.7

SMILES: CN(C)CCNc1ccc2c3c(nn2CCN(C)C)-c2cnccc2C(=O)c13
- IC50 [1, 12]: 0.5 µg/mL (≈ 1.32 µM)
- IC50 (Lovo/DX [2]; [13]): 0.9 µg/mL (≈ 2.38 µM)
- RI (resistance index) (Lovo/DX [2]): 1.8

SMILES: COc1cc([C@@H]2c3cc4c(cc3[C@@H](O[C@@H]3O[C@@H]5CO[C@@H](C)O[C@H]5[C@H](O)[C@H]3O)[C@H]3COC(=O)[C@H]23)OCO4)cc(OC)c1O [VP-16]
- resistance / accumulation in Lovo/DX subline (in words) (Lovo/DX [3]): resistant

SMILES: O=C1c2ccccc2C(=O)c2c(NCCNCCO)ccc(NCCNCCO)c21 [ametantrone, 1,4-bis{[2-(2-hydroxyethylamino)ethyl]amino}anthracene-9,10-dione]
- cross resistance / resistance in Lovo/DX (in words) (Lovo/DX [2]): acquired resistance
- cardiotoxicity in animals (in words) [5]: less cardiotoxic than mitoxantrone
- potency relative to mitoxantrone (fold less potent) ([5]; in animals): about 10 fold
- myelodepressive toxicity (in words) [8]: remarkable myelodepressive toxicity
- cross-resistance (in words) [11]: cross-resistance
